Structures can show the parent of a compound that is named as a salt. Where two headings read alike, the source gives them in different places.
Tests used:
[1] = from CCOC(=O)c1[nH]c2c(-c3c(N(C)CCCCCO)nn(C)c3C)c(Cl)ccc2c1CCCOc1cccc2cc(F)ccc12, amine bond, di-tert-butyl azodicarboxylate/PPh3, THF, 15.7 mM, 64.0 h
SUDHL5 [2] = assay: Induction of caspase-3/7 activity (Assay 4), SUDHL5; type: cell-based; conditions: SUDHL5 cells
Summary of the method: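 DLBCL cells treated with compounds for 3 hours at 37° C. Caspase-3/7 activity measured by Caspase-Glo 3/7 luminescence, with medium-only background subtracted.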

SUDHL10 [3] = assay: Induction of caspase-3/7 activity (Assay 4), SUDHL10; type: cell-based; conditions: SUDHL10 cells
Summary of the method: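 SUDHL10 DLBCL cells treated with compounds for 3 hours at 37 °C in a humidified incubator. Caspase-3/7 activity read with Caspase-Glo 3/7 luminescent reagent. Medium-only background subtracted from all values.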

SUDHL5 [4] = assay: Antiproliferation assay 7, SUDHL5; type: cell-based; conditions: SUDHL5 cells, CellTiter-Glo, read-out: Antiproli SUDHL5 IC50 (median)
Summary of the method: (§1)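 Luminescent ATP-based viability (CellTiter-Glo) measured after 72 hours of compound treatment at 37° C, alongside a time-zero plate read on the day of plating.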

SUDHL10 [5] = assay: Antiproliferation assay 7, SUDHL10; type: cell-based; conditions: SUDHL10 cells, CellTiter-Glo, read-out: Antiproli SUDHL10 IC50 (median)
Summary of the method: as §1

MV-4-11 = assay: Antiproliferation assay 7, MV-4-11; type: cell-based; conditions: MV-4-11 cells, CellTiter-Glo, read-out: Antiproli MV-4-11 IC50 median
Summary of the method: as §1

AMO-1 = assay: Antiproliferation assay 7, AMO-1; type: cell-based; conditions: AMO-1 cells, CellTiter-Glo, read-out: Antiproli AMO-1 IC50 median
Summary of the method: as §1

HMC-1-8 = assay: Antiproliferation assay 7, HMC-1-8; type: cell-based; conditions: HMC-1-8 cells, CellTiter-Glo, read-out: Antiproli HMC-1-8 IC50 median
Summary of the method: as §1

SK-BR-3 = assay: Antiproliferation assay 7, SK-BR-3; type: cell-based; conditions: SK-BR-3 cells, 72 hours, CellTiter-Glo, read-out: Antiproli SK-BR-3 IC50 median
Experimental: (§2) Assessment of the Anti-Proliferative Effect of Compounds in Different Cell Lines
(§3) The impact of compounds on the proliferation of different cell lines was assessed using the CellTiter-Glo® Luminescent Cell Viability reagent from Promega (G7573).
(§4) In parallel, cells were plated in a reference (day 0) plate for time zero determination.
(§5) Rim wells were excluded. The cells were incubated for 72 hours in a humidified incubator at 37° C. The day 0 plate was measured by adding 30 μL/well of CTG solution (CellTiter-Glo® Luminescent Cell Viability reagent, Promega G7573) to time zero wells in the reference plate followed by a 10 minutes incubation and luminescence reading at 0.1 ms. using the PHERAstar FS microplate reader (BMG Labtech).
(§6) After 72 hours incubation, the treated plates were measured in the same way as the day 0 plate mentioned above.

A2058 = assay: Antiproliferation assay 7, A2058; type: cell-based; conditions: A2058 cells, 72 hours, CellTiter-Glo, read-out: Antiproli A2058 IC50 median
Experimental: as §2, §3, §4, §5, §6

NCI-H23 = assay: Antiproliferation assay 7, NCI-H23; type: cell-based; conditions: NCI-H23 cells, 72 hours, CellTiter-Glo, read-out: Antiproli NCI-H23 IC50 median
Experimental: as §2, §3, §4, §5, §6

SUDHL10 [6] = assay: Induction of cytotoxicity (Assay 6), SUDHL10
SUDHL5 [7] = tested on: SUDHL5
SUDHL10 [8] = tested on: SUDHL10
SNU-389 = assay: Antiproliferation assay 7, SNU-389; type: cell-based; conditions: SNU-389 cells, 72 hours, CellTiter-Glo; read-out: Antiproli SNU-389 IC50 median
Experimental: as §2, §3, §4, §5, §6

T47D = assay: Antiproliferation assay 7, T47D; type: cell-based; conditions: T47D cells, 72 hours, CellTiter-Glo; read-out: Antiproli T47D IC50 median
Experimental: as §2, §3, §4, §5, §6

SUDHL5 [9] = assay: Induction of cytotoxicity (Assay 6), SUDHL5; conditions: read-out: Cytotox SUDHL5 IC50 (median); SUDHL5 cells, 5 hours, CellTiter-Glo
MCL-1 = MCL-1 (Homo sapiens (Human), UniProt Q07820, K194A/K197A/R201A); assay: Protein-protein interaction assay MCL-1/Noxa BH3 peptide (MCL-1 Assay, TR-FRET); type: binding; conditions: read-out: MCL-1 Assay IC50 (median)
MCL-1, sequence (Q07820 whole entry K194A/K197A/R201A, looked up): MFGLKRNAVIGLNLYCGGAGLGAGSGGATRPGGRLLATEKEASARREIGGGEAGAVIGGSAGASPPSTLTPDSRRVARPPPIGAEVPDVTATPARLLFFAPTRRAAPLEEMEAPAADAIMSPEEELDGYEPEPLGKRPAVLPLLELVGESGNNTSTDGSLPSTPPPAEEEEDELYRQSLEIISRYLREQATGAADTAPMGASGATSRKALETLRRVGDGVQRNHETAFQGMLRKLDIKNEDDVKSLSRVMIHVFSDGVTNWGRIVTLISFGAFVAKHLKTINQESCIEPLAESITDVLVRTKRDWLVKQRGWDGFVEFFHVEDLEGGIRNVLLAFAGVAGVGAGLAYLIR

BCL-XL = BCL-XL (Homo sapiens (Human), UniProt Q07817); assay: Protein-protein interaction assay BCL-XL/Bad BH3 peptide (BCL-XL Assay, TR-FRET); type: binding; conditions: read-out: BCL-XL Assay IC50 (median)
BCL-XL, sequence (Q07817 other isoform, or with tags, fused parts or gaps): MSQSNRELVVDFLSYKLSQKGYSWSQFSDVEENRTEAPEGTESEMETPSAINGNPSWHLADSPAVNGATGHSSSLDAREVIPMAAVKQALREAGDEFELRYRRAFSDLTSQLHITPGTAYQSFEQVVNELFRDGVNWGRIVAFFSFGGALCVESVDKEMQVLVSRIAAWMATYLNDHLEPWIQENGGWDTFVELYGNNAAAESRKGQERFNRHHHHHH

BCL-2 = BCL-2 (Homo sapiens (Human), UniProt P10415); assay: Protein-protein interaction assay BCL-2/Bad BH3 peptide (BCL-2 Assay, TR-FRET); type: binding; conditions: read-out: BCL-2 Assay IC50 (median)
BCL-2, sequence (P10415 other isoform, or with tags, fused parts or gaps): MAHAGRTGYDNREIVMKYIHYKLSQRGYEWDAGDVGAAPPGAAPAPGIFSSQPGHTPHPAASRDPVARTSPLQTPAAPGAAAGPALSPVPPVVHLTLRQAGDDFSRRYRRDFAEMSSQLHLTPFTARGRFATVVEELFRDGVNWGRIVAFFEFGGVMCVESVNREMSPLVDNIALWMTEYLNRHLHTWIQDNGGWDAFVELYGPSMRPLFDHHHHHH
Summary of the method: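 His-BCL-2 pre-equilibrated with compound 10 min at 22° C., then incubated with Bad BH3 peptide 1 h at 22° C. in dark and overnight at 4° C.; TR-FRET ratio read.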

[10] = 3 hours, Caspase-Glo 3/7, read-out: Caspase SUDHL5 EC50 (median)
[11] = 3 hours, Caspase-Glo 3/7, read-out: Caspase SUDHL10 EC50 (median)
[12] = read-out: Cytotox SUDHL10 IC50 (median), SUDHL10 cells, 5 hours, CellTiter-Glo

Row | IC50 (SUDHL5 [7]) [nM] | IC50 (SUDHL10 [8]) [nM] | IC50 (SUDHL10 [5]; 72 hours) [nM] | IC50 (MCL-1) [nM] | Molecule | EC50 (SUDHL5 [2]; [10]) [nM] | EC50 (SUDHL10 [3]; [11]) [nM] | IC50 (SUDHL5 [4]; 72 hours) [nM] | IC50 (MV-4-11; 72 hours) [nM] | IC50 (AMO-1; 72 hours) [nM] | IC50 (HMC-1-8; 72 hours) [nM] | IC50 (SK-BR-3) [nM] | IC50 (A2058) [nM] | other results
1 |  |  | 1700 |  | Cc1nn(C)c2c1-c1c(Cl)ccc3c(CCCOc4cccc5ccccc45)c(C(=O)O)n(c13)CCCCOC2 (single isomer, unassigned; enantiomer 1) [Example 3, 4-chloro-1,3-dimethyl-7-[3-(naphthalen-1-yloxy)propyl]-1,10,11,12,13,15-hexahydropyrazolo[4′,3′:9,10][1,6]oxazacycloundecino[8,7,6-hi]indole-8-carboxylic Acid (Enantiomer 1)] |  |  |  |  |  |  |  |  | IC50 (MV-4-11; Homo sapiens, MV4-11, 72 h): 766 nM; IC50 (AMO-1; Homo sapiens, AMO1, 72 h): 2510 nM; IC50 (HMC-1-8; 72 h): 8280 nM; IC50 (SK-BR-3; Homo sapiens): 7370 nM; IC50 (A2058; Homo sapiens): > 30000 nM; IC50 (NCI-H23; Homo sapiens): 6120 nM; IC50 (SNU-389): 20600 nM
2 | > 33000 | > 33000 | 15000 | 43 | Cc1nn(C)c2c1-c1cccc3c(CCCOc4cccc5ccccc45)c(C(=O)O)n(c13)CCCCN2 [Example 70, (rac)-9,11-dimethyl-1-[3-(1-naphthyloxy)propyl]-4,5,6,7,8,9-hexahydropyrazolo[4′,3′:4,5][1,6]diazecino[3,2,1-hi]indole-2-carboxylic Acid] | > 33000 | 29000 | > 33000 |  |  |  |  |  | 
3 | 350 | 450 |  | 0.89 | (rac)-4-chloro-3-ethyl-1-[2-(morpholin-4-yl)ethyl]-7-[3-(naphthalen-1-yloxy)propyl]-1,10,11,12,13,15-hexahydropyrazolo[4′,3′:9,10][1,6]oxazacycloundecino[8,7,6-hi]indole-8-carboxylic Acid [Example 8] | 290 | 360 | 470 | 1100 | 1180 |  | 3000 |  | 
4 | 840 | 2000 |  | 2.3 | (rac)-4-chloro-12,12-difluoro-2,3-dimethyl-7-{3-[(naphthalen-1-yl)oxy]propyl}-2,10,11,12,13,15-hexahydropyrazolo[4′,3′:9,10][1,6]oxazacycloundecino[8,7,6-hi]indole-8-carboxylic Acid [Example 55] | 510 | 1500 | 620 |  | 1710 | 5750 |  |  | IC50 (BCL-XL): > 20000 nM; IC50 (BCL-2): 18800 nM

Second part, the molecule before the results:

Row | Molecule | IC50 (SUDHL5 [7]) [nM] | IC50 (SUDHL10 [8]) [nM] | IC50 (SUDHL10 [5]; 72 hours) [nM] | IC50 (MCL-1) [nM] | EC50 (SUDHL5 [2]; [10]) [nM] | EC50 (SUDHL10 [3]; [11]) [nM] | IC50 (SUDHL5 [4]; 72 hours) [nM] | IC50 (MV-4-11; 72 hours) [nM] | IC50 (AMO-1; 72 hours) [nM] | IC50 (HMC-1-8; 72 hours) [nM] | IC50 (SK-BR-3) [nM] | IC50 (A2058) [nM] | other results
5 | CCOC(=O)c1c(CCCOc2cccc3cc(F)ccc23)c2ccc(Cl)c3c2n1CCCCCN(C)c1nn(C)c(C)c1-3 |  |  |  |  |  |  |  |  |  |  |  |  | ring closure, yield of all isomers [1]: 44.8%
6 | Cc1nn(C)c2c1-c1c(Cl)ccc3c(CCCOc4cccc5ccccc45)c(C(=O)O)n(c13)CCCCOC2 (racemic) [Example 2, rac-4-chloro-1,3-dimethyl-7-[3-(naphthalen-1-yloxy)propyl]-1,10,11,12,13,15-hexahydropyrazolo[4′,3′:9,10][1,6]oxazacycloundecino[8,7,6-hi]indole-8-carboxylic Acid] |  |  |  |  |  |  |  |  |  |  |  |  | EC50 (SUDHL5 [2]; Homo sapiens, SU-DHL-5, 3 h, Caspase-Glo 3/7, read-out: Caspase SUDHL5 EC50 (median)): 950 nM; EC50 (SUDHL10 [3]; Homo sapiens, SU-DHL10, 3 h, Caspase-Glo 3/7, read-out: Caspase SUDHL10 EC50 (median)): 3800 nM; IC50 (SUDHL5 [4]; Homo sapiens, SU-DHL-5, 72 h): 2800 nM; IC50 (SUDHL10 [5]; Homo sapiens, SU-DHL10, 72 h): 2400 nM; IC50 (MV-4-11; Homo sapiens, MV4-11, 72 h): 1610 nM; IC50 (AMO-1; Homo sapiens, AMO1, 72 h): 4860 nM; IC50 (HMC-1-8; 72 h): 15300 nM; IC50 (SK-BR-3; Homo sapiens): 8270 nM; IC50 (A2058; Homo sapiens): > 30000 nM; IC50 (NCI-H23; Homo sapiens): 14600 nM; IC50 (SUDHL10 [6]; Homo sapiens, SU-DHL10, 5 h, read-out: Cytotox SUDHL10 IC50 (median), SUDHL10 cells, 5 hours, CellTiter-Glo): 3000 nM
7 | Cc1c2c(nn1C)COCCCCn1c(C(=O)O)c(CCCOc3cccc4ccccc34)c3ccc(Cl)c-2c31 (racemic) [Example 25, (rac)-4-chloro-2,3-dimethyl-7-[3-(naphthalen-1-yloxy)propyl]-2,10,11,12,13,15-hexahydropyrazolo[4′,3′:9,10][1,6]oxazacycloundecino[8,7,6-hi]indole-8-carboxylic Acid] | 530 | 930 |  |  | 390 | 1200 | 560 | 2780 | 1310 | 6480 | 12900 | 21900 | IC50 (NCI-H23): 6010 nM
8 | Cc1c2c(nn1C)COCCCCn1c(C(=O)O)c(CCCOc3cccc4cc(F)ccc34)c3ccc(Cl)c-2c31 (single isomer, unassigned; enantiomer 1) [Example 15, (+)-4-chloro-7-{3-[(6-fluoronaphthalen-1-yl)oxy]propyl}-2,3-dimethyl-2,10,11,12,13,15-hexahydropyrazolo[4′,3′:9,10][1,6]oxazacycloundecino[8,7,6-hi]indole-8-carboxylic acid-N-ethylethanamine Salt (Enantiomer 1)] |  |  | 200 |  | 150 | 150 | 190 | 461 | 530 | 1360 |  | 5860 | IC50 (T47D): 11900 nM; IC50 (SUDHL5 [9]): 140 nM; IC50 (SUDHL10 [6]; [12]): 230 nM
9 | Cc1c2c(nn1C)COCCCCn1c(C(=O)O)c(CCCOc3cccc4ccccc34)c3ccc(Cl)c-2c31 (single isomer, unassigned; enantiomer 1) [Example 26, 4-chloro-2,3-dimethyl-7-[3-(naphthalen-1-yloxy)propyl]-2,10,11,12,13,15-hexahydropyrazolo-[4′,3′:9,10][1,6]oxazacycloundecino[8,7,6-hi]indole-8-carboxylic acid-N-ethylethanamine Salt (Enantiomer 1)] |  |  |  |  | 350 | 410 | 580 | 1810 | 996 | 2890 | 3300 | 14900 | IC50 (NCI-H23): 2320 nM; IC50 (SUDHL5 [9]): 460 nM; IC50 (SUDHL10 [6]; [12]): 500 nM
